Drawing on patent US6710047B2, “Phthalazines with angiogenesis inhibiting activity” (Novartis AG, priority 1997, dated 2004), this text covers IC50 and melting point for 28 compounds.

One data set has as its target PDGF-receptor kinase. The experiment in a line: Inhibition of PDGF-receptor kinase (method of Trinks et al.). Type of data set: biochemical. The protocol: An inhibitory effect can also be found especially on PDGF-receptor kinase, which is determined according to the method described by Trinks et al. (see J. Med. Chem. 37(7): 1015-27 [1994]). Inhibitory activity is shown here in the micromolar range using a compound of formula I (or an N-oxide thereof); […]

Data set [1] deals with T1, Flt-1 VEGF-receptor tyrosine kinase (Homo sapiens, UniProt P17948).
T1 sequence (P17948 827-1158 limits assumed): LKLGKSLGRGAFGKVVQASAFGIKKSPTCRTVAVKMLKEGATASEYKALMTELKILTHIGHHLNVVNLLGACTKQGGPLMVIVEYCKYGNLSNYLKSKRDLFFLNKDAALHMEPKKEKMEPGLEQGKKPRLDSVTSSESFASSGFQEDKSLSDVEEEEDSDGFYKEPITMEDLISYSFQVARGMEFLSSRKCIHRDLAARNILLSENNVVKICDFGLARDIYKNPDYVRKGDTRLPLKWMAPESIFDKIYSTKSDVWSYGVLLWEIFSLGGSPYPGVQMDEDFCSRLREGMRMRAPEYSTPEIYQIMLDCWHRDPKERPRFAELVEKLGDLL
Put plainly: Test for activity against Flt-1 VEGF-receptor tyrosine kinase.
Protocol: Test for activity against VEGF-receptor tyrosine kinase. The test is conducted using Flt-1 VEGF-receptor tyrosine kinase. […] The reaction is then ended by the addition of 10 μl 0.25 M ethylenediaminetetraacetate (EDTA) pH 7. Using a multichannel dispenser (LAB SYSTEMS, USA), an aliquot of 20 μl is applied to a PVDF (=polyvinyl difluoride) Immobilon P membrane (Millipore, USA), incorporating a Millipore microtiter filter manifold, and connected to a vacuum.
The test is conducted using Flt-1 VEGF-receptor tyrosine kinase, as described hereinabove.

pIC50: −log10 of the molar value. Counter-ions that a name gives are not always drawn. Like-named read-outs stand apart in the source and are kept apart here.

`Clc1ccc(Nc2nnc(Cc3ccncc3)c3ccccc23)cc1` [Example 1, 1-(4-Chloroanilino)-4-(4-pyridylmethyl)phthalazine dihydrochloride] gave a pIC50 at PDGF-receptor kinase of approximately 6.00. Take `CCc1ccc(Nc2nnc(Cc3ccncc3)c3ccccc23)cc1` [Example 44A, 1-(4-Ethylanilino)-4-(4-pyridylmethyl)phthalazine]: the melting point lay in the range of 163 to 164 °C. Moreover, the pIC50 in data set [1] is 6.56.

`CCCc1ccc(Nc2nnc(Cc3ccncc3)c3ccccc23)cc1` [Example 44B, 1-(4-Propylanilino)-4-(4-pyridylmethyl)phthalazine] showed a melting point of 180 to 181 °C. Also, in data set [1], the pIC50 is 6.63. For `Cc1ccc(Nc2nnc(Cc3ccncc3)c3ccccc23)cc1F` [Example 44C, 1-(3-Fluoro-4-methylanilino)-4-(4-pyridylmethyl)phthalazine] the same measures were 210 to 212 °C and 7.38.

`Fc1cc(Cl)ccc1Nc1nnc(Cc2ccncc2)c2ccccc12` [Example 44D, 1-(4-Chloro-2-fluoroanilino)-4-(4-pyridylmethyl)phthalazine] registered a melting point of 157 to 159 °C. This compound showed a pIC50 in data set [1] of 6.50. In turn, `CCOc1ccc(Nc2nnc(Cc3ccncc3)c3ccccc23)cc1` [Example 44E, 1-(4-Ethoxyanilino)-4-(4-pyridylmethyl)phthalazine] showed a melting point of 223 to 224 °C. Moreover, the pIC50 in data set [1] was 6.31.

As to `Cc1cc(Cc2nnc(Nc3ccc(Cl)cc3)c3ccccc23)ccn1` [Example 44F, 1-(4-Chloroanilino)-4-[(2-methyl-4-pyridyl)methyl]phthalazine], the melting point lay within 158 to 159 °C. This compound had a pIC50 in data set [1] (kinase domain of Flt-1, poly(Glu,Tyr) 4:1, 8 μM [33P]-ATP, 15 minutes at room temperature) of 6.20. Compound `Clc1ccc(Nc2nnc(Cc3ccncc3)c3c2CCCC3)cc1` [Example 44H, 1-(4-Chloroanilino) 4-(4-pyridylmethyl)-5,6,7,8-tetrahydrophthalazine] registered a melting point of 181 to 183 °C. The same compound had a pIC50 in data set [1] of 4.94. In turn, `Cc1ccc(Nc2nnc(Cc3ccncc3)c3ccccc23)cc1C` [Example 45] came in with a melting point of 180 to 181 °C. In data set [1], this compound showed a pIC50 of 6.46. For `Cc1cc(C)cc(Nc2nnc(Cc3ccncc3)c3ccccc23)c1` [Example 46, 1-(3,5-Dimethylanilino)-4-(4-pyridylmethyl)phthalazine] the same measures were 174 to 175 °C and 6.46. For `Clc1ccc(Nc2nnc(OCc3ccncc3)c3ccccc23)cc1` [Example 50, 1-(4-Chloroanilino)-4-(4-pyridylmethoxy)phthalazine] the same measures were 139 to 141 °C and 6.71.

`Oc1cccc(Oc2nnc(Cc3ccncc3)c3ccccc23)c1` [Example 56, 1-(3-Hydroxyphenoxy)-4-(4-pyridylmethyl)phthalazine] came in with a melting point of 206 to 207 °C. Further, the pIC50 in data set [1] was 6.00. For `c1ccc2c(NC3CCCCC3)nnc(Cc3ccncc3)c2c1` [Example 57, 1-Cyclohexylamino-4-(4-pyridylmethyl)phthalazine] the same measures were 137 to 139 °C and 4.80. `c1ccc2c(NC3CCCC3)nnc(Cc3ccncc3)c2c1` [Example 58, 1-Cyclopentylamino-4-(4-pyridylmethyl)phthalazine]: the melting point was 163 to 165 °C. In data set [1], this compound showed a negative logarithm of the IC50 (pIC50) of 5.14. For `Clc1ccc(Nc2nnc(Cc3ccncn3)c3ccccc23)cc1` [Example 66, 1-(4-Chloroanilino)-4-(4-pyrimidinylmethyl)phthalazine] the same measures were 174 to 176 °C and 5.62. For `CSc1cccc(Nc2nnc(Cc3ccncc3)c3ccccc23)c1` [Example 67D] the same measures were 148 to 149 °C and 6.40.

Compound `CCc1cccc(Nc2nnc(Cc3ccncc3)c3ccccc23)c1` [Example 67E] came in with a melting point of 143 to 144 °C. Moreover, the negative-log IC50 (pIC50) in data set [1] was 6.36. For `CCOc1cccc(Nc2nnc(Cc3ccncc3)c3ccccc23)c1` [Example 67F] the same measures were 193 to 195 °C and 5.92. Taken in the same sequence, the figures for `FC(F)(F)Oc1cccc(Nc2nnc(Cc3ccncc3)c3ccccc23)c1` [Example 67H] were 176 to 178 °C and 6.21. The compound `CC(=O)c1ccc(Nc2nnc(Cc3ccncc3)c3ccccc23)cc1O` [Example 69] gave a melting point of 234 to 236 °C. Further, the negative-log IC50 (pIC50) in data set [1] was 6.13. Taken in the same sequence, the figures for `Clc1ccc(Oc2nnc(Cc3ccncc3)c3ccccc23)cc1` [Example 72B] were 207 to 208 °C and 6.55. For `Cc1ccc(Oc2nnc(Cc3ccncc3)c3ccccc23)cc1` [Example 72C] the same measures were 175 to 176 °C and 6.13.

Regarding `COc1ccc(Oc2nnc(Cc3ccncc3)c3ccccc23)cc1` [Example 72D], the melting point was in the range of 194 to 196 °C. Also, the pIC50 in data set [1] is 6.23. `Clc1ccc(Sc2nnc(Cc3ccncc3)c3ccccc23)cc1` [Example 72E] came in with a melting point of 204 to 206 °C. The pIC50 in data set [1] was 5.92. For `Clc1ccc(Nc2nnc(Cc3ccncc3)c3ncccc23)cc1` [Example 73, 5-(4-Chloroanilino)-8-(4-pyridylmethyl)pyrido[2,3-d]pyridazine] the same measures were 220 to 222 °C and 6.40. On to `Clc1ccc(Nc2nnc(Cc3ccncc3)c3cccnc23)cc1` [Example 74, 8-(4-Chloroanilino)-5-(4-pyridylmethyl)pyrido[2,3-d]pyridazine], for which the melting point was in the range of 196 to 197 °C. Also, in data set [1], the pIC50 was 6.00. Taken in the same sequence, the figures for `Clc1ccc(Nc2nnc(Cc3ccncc3)c3cnccc23)cc1` [Example 75, 1-(4-Chloroanilino)-4-(4-pyridylmethyl)pyrido[3,4-d]pyridazine] were 227 to 228 °C and 6.00. For `Clc1ccc(Nc2nnc(Cc3ccncc3)c3ccncc23)cc1` [Example 76, 4-(4-Chloroanilino)-1-(4-pyridylmethyl)pyrido[3,4-d]pyridazine] the same measures were 220 to 221 °C and 5.49.

Usually pIC50 stands for the IC50 on a negative log10 scale, so that one unit is a factor of ten. Read a high pIC50 as a low IC50. In general, melting point refers to the temperature of the solid-liquid transition.
